Results reported in the supplement of paper PMC11061612.

Legend:
Assay in all cases: Bliss excess, mean over the matrix (fraction); higher = more synergy
[1] = system: A4-Fuk (B-Lymphoblastic Leukemia)
Method in brief: (§1)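 Cell lines grown in DMEM/F12 or RPMI with 10% FBS were plated in 1536-well plates and held 24 hours at 37°C, 5% CO2 before 72 hours of exposure to two-drug dose matrices, with DMSO typically at 0.2%. CellTiter-Glo 2.0 luminescence gave viability, which was converted to inhibition. Vehicle wells were set to 0 and blank wells to 1. Combination Emax is the second-highest inhibition in the matrix, and Bliss excess is the observed combination effect minus the expected EA + EB − EA·EB, where EA and EB are the single-agent effects.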

[2] = system: COLO-668 (Small Cell Lung Carcinoma)
Method in brief: as §1

COLO-679 (Melanoma) = system: COLO-679 (Melanoma)
Method in brief: as §1

[3] = system: Ca-Ski (Cervical Carcinoma)
Method in brief: as §1

[4] = system: DU-145 (Prostate Carcinoma)
Method in brief: as §1

[5] = system: EFO-21 (Ovarian Carcinoma)
Method in brief: as §1

[6] = system: HAL-01 (B-Lymphoblastic Leukemia)
Method in brief: as §1

[7] = system: KMRC-1 (Kidney Carcinoma)
Method in brief: as §1

[8] = system: MDA-MB-453 (Breast Carcinoma)
Method in brief: as §1

[9] = system: ML-2 (Acute Myeloid Leukemia)
Method in brief: as §1

[10] = system: MOG-G-UVW (Low Grade Glioma)
Method in brief: as §1

[11] = system: MOLT-4 (T-Lymphoblastic Leukemia)
Method in brief: as §1

[12] = system: MV-4-11 (Acute Myeloid Leukemia)
Method in brief: as §1

[13] = system: Mo-T (Other Blood Carcinomas)
Method in brief: as §1

[14] = system: NCI-H1355 (Lung Adenocarcinoma)
Method in brief: as §1

[15] = system: NCI-H1993 (Lung Adenocarcinoma)
Method in brief: as §1

[16] = system: OE33 (Esophageal Adenocarcinoma)
Method in brief: as §1

[17] = system: SKN (Other Solid Carcinomas)
Method in brief: as §1

[18] = system: SW872 (Other Solid Carcinomas)
Method in brief: as §1

[19] = system: SW982 (Other Solid Carcinomas)
Method in brief: as §1

| SMILES | Bliss excess [1] | Bliss excess [2] | Bliss excess (COLO-679 (Melanoma)) | Bliss excess [3] | Bliss excess [4] | Bliss excess [5] | Bliss excess [6] | Bliss excess [7] | Bliss excess [8] | Bliss excess [9] | Bliss excess [10] | Bliss excess [11] | Bliss excess [12] | Bliss excess [13] | Bliss excess [14] | Bliss excess [15] | Bliss excess [16] | Bliss excess [17] | Bliss excess [18] | Bliss excess [19] |
| --- | --- | --- | --- | --- | --- | --- | --- | --- | --- | --- | --- | --- | --- | --- | --- | --- | --- | --- | --- | --- |
| Cc1cc2ncnn2cc1Nc1ncc2c(n1)n(C1CCOCC1)c(=O)n2C [AZD7648] + COc1cc([C@@H]2c3cc4c(cc3[C@@H](O[C@@H]3O[C@@H]5CO[C@@H](C)O[C@H]5[C@H](O)[C@H]3O)[C@H]3COC(=O)[C@H]23)OCO4)cc(OC)c1O [Etoposide] (first compound max 10 µM, 7x7, partner max 10 µM) | -0.0187 | 0.0429 | -0.0745 | 0.103 | 0.0001 | 0.0562 | 0.0962 | 0.0859 | -0.0136 | 0.125 | 0.164 | 0.167 | 0.115 | 0.0928 | 0.0529 | -0.0083 | 0.0247 | 0.0503 | 0.106 | 0.142 |
| Cc1cc2ncnn2cc1Nc1ncc2c(n1)n(C1CCOCC1)c(=O)n2C [AZD7648] + C[C@@H]1COCCN1C2=NC(=NC(=C2)C3(CC3)[S@](=N)(=O)C)C4=C5C=CNC5=NC=C4 [AZD6738] (first compound max 10 µM, 7x7, partner max 10 µM) | -0.0768 | 0.0093 | -0.0486 | 0.0404 | -0.0068 | 0.053 | -0.0048 | 0.0397 | 0.0076 | -0.0817 | 0.0717 | 0.0427 | -0.0469 | -0.0956 | 0.0296 | 0.0469 | -0.0187 | 0.0038 | 0.0801 | -0.096 |
| Cc1cc2ncnn2cc1Nc1ncc2c(n1)n(C1CCOCC1)c(=O)n2C [AZD7648] + O=C(c1cc(Cc2n[nH]c(=O)c3ccccc23)ccc1F)N1CCN(C(=O)C2CC2)CC1 [Olaparib] (first compound max 10 µM, 7x7, partner max 10 µM) | -0.038 | -0.0105 | -0.039 | -0.0467 | -0.026 | -0.045 | 0.0522 | -0.015 | -0.0144 | -0.0218 | -0.0052 | -0.0277 | -0.0389 | -0.049 | -0.0538 | -0.0321 | -0.0359 | -0.0448 | -0.0126 | 0.0002 |
| Cc1nc(Nc2ncc(C(=O)Nc3c(C)cccc3Cl)s2)cc(N2CCN(CCO)CC2)n1 [Dasatinib] + CC(=O)Nc1cccc(-n2c(=O)n(C3CC3)c(=O)c3c(Nc4ccc(I)cc4F)n(C)c(=O)c(C)c32)c1 [Trametinib] (first compound max 2 µM, 7x7, partner max 1 µM) | -0.0013 | -0.0121 | -0.137 | 0.0639 | -0.0081 | 0.0296 | 0.0436 | -0.0009 | -0.035 | -0.122 | -0.028 | 0.0717 | -0.128 | -0.0835 | 0.0328 | -0.0254 | -0.0082 | -0.0618 | 0.101 | -0.0319 |
| COc1cc2ncnc(Nc3ccc(F)c(Cl)c3)c2cc1OCCCN1CCOCC1 [Gefitinib] + CC(C)n1c(=O)n(C)c2cnc3cc(F)c(-c4ccc(OCCCN5CCCCC5)nc4)cc3c21 [AZD1390] (first compound max 10 µM, 7x7, partner max 0.3 µM) | -0.0704 | -0.0333 | -0.0901 | -0.0785 | -0.06 | -0.0875 | 0 | -0.0702 | -0.0171 | -0.0237 | -0.0401 | 0.009 | -0.0534 | -0.0475 | -0.039 | -0.0506 | -0.0434 | -0.0548 | -0.025 | -0.0861 |
| COc1cc2c(cc1OCCCCCOc1cc3c(cc1OC)C(=O)N1C=C(C)C[C@H]1C=N3)N=C[C@@H]1CC(C)=CN1C2=O [SG3199] + O=C(c1cc(Cc2n[nH]c(=O)c3ccccc23)ccc1F)N1CCN(C(=O)C2CC2)CC1 [Olaparib] (first compound max 0.001 µM, 7x7, partner max 10 µM) | -0.0267 | -0.0003 | -0.0285 | -0.0425 | -0.0361 | -0.0709 | 0.0067 | -0.0251 | -0.0226 | 0.0179 | -0.0081 | 0.0061 | 0.0066 | 0.0118 | -0.0503 | -0.0352 | -0.0276 | -0.0373 | -0.0209 | -0.0195 |
| N#Cc1cnc(Nc2cc(NC[C@H]3CNCCO3)c(C(F)(F)F)cn2)cn1 [SRA737] + CCc1c2c(nc3ccc(O)cc13)-c1cc3c(c(=O)n1C2)COC(=O)[C@]3(O)CC [SN-38] (first compound max 10 µM, 7x7, partner max 0.3 µM) | -0.0229 | -0.0688 | -0.13 | 0.0291 | -0.0338 | -0.0498 | -0.0125 | -0.0193 | -0.0401 | -0.0549 | 0.0034 | 0.002 | -0.0337 | -0.0363 | 0.071 | 0.0615 | -0.0371 | 0.0673 | -0.0142 | -0.0929 |
| N#Cc1cnc(Nc2cc(NC[C@H]3CNCCO3)c(C(F)(F)F)cn2)cn1 [SRA737] + Nc1ccn([C@@H]2O[C@H](CO)[C@@H](O)C2(F)F)c(=O)n1 [Gemcitabine] (first compound max 10 µM, 7x7, partner max 0.3 µM) | 0.0278 | -0.0355 | -0.0808 | 0.0666 | 0.0276 | 0.0169 | 0.0046 | 0.042 | -0.0075 | 0.061 | 0.0876 | 0.0522 | -0.0314 | -0.0134 | 0.0299 | 0.0158 | 0.0039 | -0.0073 | 0.0236 | 0.0238 |
| N#Cc1cnc(Nc2cc(NC[C@H]3CNCCO3)c(C(F)(F)F)cn2)cn1 [SRA737] + O=c1[nH]cc(F)c(=O)[nH]1 [5-Fluorouracil] (first compound max 10 µM, 7x7, partner max 20 µM) | 0.0129 | 0.0106 | -0.148 | 0.0604 | 0.0735 | -0.006 | -0.0463 | 0.0038 | 0.108 | -0.0476 | 0.0006 | 0.013 | 0.004 | 0.0056 | 0.0349 | 0.059 | 0.0184 | -0.0266 | 0.0629 | 0.0157 |
| C[C@@H](c1ccc2nccn2c1)n1nnc2ncc(-c3cnn(C)c3)nc21 [Savolitinib] + CC1(C)CCC(CN2CCN(c3ccc(C(=O)NS(=O)(=O)c4ccc(NCC5CCOCC5)c([N+](=O)[O-])c4)c(Oc4cnc5[nH]ccc5c4)c3)CC2)=C(c2ccc(Cl)cc2)C1 [Venetoclax] (first compound max 1 µM, 7x7, partner max 1 µM) | -0.0269 | -0.0624 | -0.0676 | -0.0475 | -0.0339 | -0.0679 | -0.0387 | -0.0899 | -0.0173 | 0.0096 | 0.0069 | 0.0879 | 0.0246 | -0.0492 | -0.0398 | -0.0306 | 0.001 | -0.0442 | -0.0203 | -0.046 |
| C[C@@H](c1ccc2nccn2c1)n1nnc2ncc(-c3cnn(C)c3)nc21 [Savolitinib] + Cc1c2c(nn1C)CSCc1cc(n(C)n1)CSc1cc(c3ccccc3c1)OCCCc1c(C(=O)O)n(C)c3c-2c(Cl)ccc13 [AZD5991] (first compound max 1 µM, 7x7, partner max 1 µM) | 0.0027 | -0.0417 | -0.0398 | -0.0287 | -0.0361 | -0.0454 | 0.0173 | -0.0473 | 0.0354 | -0.0082 | 0.0359 | 0.0706 | -0.034 | -0.056 | -0.0155 | -0.0338 | -0.0152 | -0.0279 | 0.003 | -0.0647 |
